Results as given in BindingDB's records for doi:10.1016/S0002-8703(03)00398-3 (University of Maryland Hospital, 2003).

Target: Prostaglandin G/H synthase 1 (Homo sapiens, UniProt P23219)
Sequence (P23219 whole entry): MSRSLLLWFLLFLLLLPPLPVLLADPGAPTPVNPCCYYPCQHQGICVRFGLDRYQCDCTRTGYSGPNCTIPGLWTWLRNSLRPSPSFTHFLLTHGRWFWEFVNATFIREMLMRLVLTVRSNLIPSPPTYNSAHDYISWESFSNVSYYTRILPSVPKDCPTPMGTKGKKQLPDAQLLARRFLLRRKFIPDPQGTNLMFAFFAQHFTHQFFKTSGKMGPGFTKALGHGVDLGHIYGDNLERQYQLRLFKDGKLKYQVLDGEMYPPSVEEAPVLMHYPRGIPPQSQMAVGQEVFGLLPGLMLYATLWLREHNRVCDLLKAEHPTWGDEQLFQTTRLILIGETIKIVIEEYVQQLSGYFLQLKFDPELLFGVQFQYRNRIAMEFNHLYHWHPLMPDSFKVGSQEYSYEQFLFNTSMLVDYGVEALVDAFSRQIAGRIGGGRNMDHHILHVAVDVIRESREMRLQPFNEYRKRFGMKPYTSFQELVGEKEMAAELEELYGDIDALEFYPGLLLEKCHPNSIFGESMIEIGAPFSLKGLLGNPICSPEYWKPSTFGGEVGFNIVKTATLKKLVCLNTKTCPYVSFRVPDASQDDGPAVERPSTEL

Ki: > 10 µM
SMILES: Cc1ccc(-c2ncc(Cl)cc2-c2ccc(S(C)(=O)=O)cc2)cn1
